ChEMBL document CHEMBL1144507, “Synthesis and antifungal activity of (Z)-5-arylidenerhodanines” (2007)
≈ marks a conversion by molar mass, not a printed value.

Columns and labels:
Cryptococcus neoformans [1] = experiment: Antifungal activity against […] IM 042074 after 48 hrs; format: functional
Pichia kudriavzevii = experiment: Antifungal activity against Candida krusei C117-2000 after 48 hrs; format: functional
Trichophyton benhamiae [2] = experiment: Antifungal activity against Trichophyton mentagrophytes C364 after 48 hrs; format: functional, Arthroderma benhamiae
Cryptococcus neoformans [3] = experiment: Antifungal activity against […] IM 972724 after 48 hrs; format: functional
Candida albicans [4] = experiment: Antifungal activity against Candida albicans ATCC 10231 after 48 hrs; format: functional; conditions: ATCC 10231, 48 h
Cryptococcus neoformans [5] = experiment: Antifungal activity against […] IM 052470 after 48 hrs; format: functional
Trichophyton benhamiae [6] = experiment: Antifungal activity against Trichophyton mentagrophytes C943 after 48 hrs; format: functional, Arthroderma benhamiae
Cryptococcus neoformans [7] = experiment: Antifungal activity against […] IM 972751 after 48 hrs; format: functional
Candida tropicalis = experiment: Antifungal activity against Candida tropicalis C131-1997 after 48 hrs; format: functional
Candida albicans [8] = experiment: Antifungal activity against Candida albicans C128-2000 after 48 hrs; format: functional
Cryptococcus neoformans [9] = experiment: Antifungal activity against […] IM 983036 after 48 hrs; format: functional
Aspergillus fumigatus = experiment: Antifungal activity against Aspergillus fumigatus ATCC 26934 after 48 hrs; format: functional; conditions: ATCC 26934, 48 h
Aspergillus niger = experiment: Antifungal activity against Aspergillus niger ATCC 9029 after 48 hrs; format: functional; conditions: ATCC 9029, 48 h
Cryptococcus neoformans [10] = experiment: Antifungal activity against Candida neoformans IM 983040 after 48 hrs; format: functional
Candida parapsilosis = experiment: Antifungal activity against Candida parapsilosis C124-2000 after 48 hrs; format: functional; conditions: Lodderomyces parapsilosis
Cryptococcus neoformans [11] = experiment: Antifungal activity against […] IM 031706 after 48 hrs; format: functional
Candida albicans [12] = experiment: Antifungal activity against Candida albicans C127-2000 after 48 hrs; format: functional
Trichophyton rubrum = experiment: Antifungal activity against Trichophyton rubrum C113 after 48 hrs; format: functional
Cryptococcus neoformans [13] = experiment: Antifungal activity against […] ATCC 32264 after 48 hrs; format: functional; conditions: ATCC 32264, 48 h
Trichophyton benhamiae [14] = experiment: Antifungal activity against Trichophyton mentagrophytes C738 after 48 hrs; format: functional, Arthroderma benhamiae
Aspergillus flavus = experiment: Antifungal activity against Aspergillus flavus ATCC 9170 after 48 hrs; format: functional; conditions: ATCC 9170, 48 h
Candida albicans [15] = experiment: Antifungal activity against Candida albicans C130-2000 after 48 hrs; format: functional
Cryptococcus neoformans [16] = experiment: Antifungal activity against Cryptococcus neoformans ATCC 32264 after 48 hrs; format: functional; conditions: ATCC 32264, 48 h
Kluyveromyces marxianus = experiment: Antifungal activity against Candida kefyr C123-2000 after 48 hrs; format: functional
Nannizzia gypsea = experiment: Antifungal activity against Microsporum gypseum C115 after 48 hrs; format: functional
Cryptococcus neoformans [17] = experiment: Antifungal activity against […] IM 031631 after 48 hrs; format: functional; conditions: Cryptococcus neoformans, 48 h
Cryptococcus neoformans [18] = experiment: Antifungal activity against […] IM 961951 after 48 hrs; format: functional
Torulaspora delbrueckii = experiment: Antifungal activity against Candida coliculosa C122-2000 after 48 hrs; format: functional
Nakaseomyces glabratus = experiment: Antifungal activity against Candida glabrata C115-2000 after 48 hrs; format: functional
Trichophyton benhamiae [19] = experiment: Antifungal activity against Trichophyton mentagrophytes C539 after 48 hrs; format: functional, Arthroderma benhamiae
Cryptococcus neoformans [20] = experiment: Antifungal activity against […] IM 00319 after 48 hrs; format: functional
Candida albicans [21] = experiment: Antifungal activity against Candida albicans C126-2000 after 48 hrs; format: functional
Saccharomyces cerevisiae = experiment: Antifungal activity against Saccharomyces cerevisiae ATCC 9763 after 48 hrs; format: functional; conditions: ATCC 9763, 48 h
Trichophyton benhamiae [22] = experiment: Antifungal activity against Trichophyton mentagrophytes ATCC 9972 after 48 hrs; format: functional, Arthroderma benhamiae; conditions: ATCC 9972, 48 h
Trichophyton benhamiae [23] = experiment: Antifungal activity against Trichophyton mentagrophytes C108 after 48 hrs; format: functional, Arthroderma benhamiae
Candida albicans [24] = experiment: Antifungal activity against Candida albicans C125-2000 after 48 hrs; format: functional
Candida albicans [25] = experiment: Antifungal activity against Candida albicans C129-2000 after 48 hrs; format: functional
Clavispora lusitaniae = experiment: Antifungal activity against Candida lusitaniae C131-2000 after 48 hrs; format: functional

MIC (Cryptococcus neoformans [1]): 7.8 µg/mL (≈ 32.6 µM)
MIC50 (Cryptococcus neoformans [1]): 3.9 µg/mL (≈ 16.3 µM)
MIC80 (Cryptococcus neoformans [1]): 3.9 µg/mL (≈ 16.3 µM)
MIC (Pichia kudriavzevii): 31.2 µg/mL (≈ 130 µM)
MIC50 (Pichia kudriavzevii): 3.9 µg/mL (≈ 16.3 µM)
MIC80 (Pichia kudriavzevii): 7.8 µg/mL (≈ 32.6 µM)
MIC (Trichophyton benhamiae [2]): 0.97 µg/mL (≈ 4.05 µM)
MIC (Cryptococcus neoformans [3]): 15.6 µg/mL (≈ 65.2 µM)
MIC50 (Cryptococcus neoformans [3]): 3.9 µg/mL (≈ 16.3 µM)
MIC80 (Cryptococcus neoformans [3]): 7.8 µg/mL (≈ 32.6 µM)
MIC (Candida albicans [4]): 7.8 µg/mL (≈ 32.6 µM)
MIC (Cryptococcus neoformans [5]): 7.8 µg/mL (≈ 32.6 µM)
MIC50 (Cryptococcus neoformans [5]): 1.9 µg/mL (≈ 7.94 µM)
MIC80 (Cryptococcus neoformans [5]): 1.9 µg/mL (≈ 7.94 µM)
MIC (Trichophyton benhamiae [6]): 0.97 µg/mL (≈ 4.05 µM)
MIC (Cryptococcus neoformans [7]): 7.8 µg/mL (≈ 32.6 µM)
MIC50 (Cryptococcus neoformans [7]): 1.9 µg/mL (≈ 7.94 µM)
MIC80 (Cryptococcus neoformans [7]): 1.9 µg/mL (≈ 7.94 µM)
MIC (Candida tropicalis): 7.8 µg/mL (≈ 32.6 µM)
MIC50 (Candida tropicalis): 3.9 µg/mL (≈ 16.3 µM)
MIC80 (Candida tropicalis): 7.8 µg/mL (≈ 32.6 µM)
MIC (Candida albicans [8]): 31.2 µg/mL (≈ 130 µM)
MIC50 (Candida albicans [8]): 3.9 µg/mL (≈ 16.3 µM)
MIC80 (Candida albicans [8]): 15.6 µg/mL (≈ 65.2 µM)
MIC (Cryptococcus neoformans [9]): 15.6 µg/mL (≈ 65.2 µM)
MIC50 (Cryptococcus neoformans [9]): 7.8 µg/mL (≈ 32.6 µM)
MIC80 (Cryptococcus neoformans [9]): 7.8 µg/mL (≈ 32.6 µM)
MIC (Aspergillus fumigatus): 250 µg/mL (≈ 1040 µM)
MIC (Aspergillus niger): 250 µg/mL (≈ 1040 µM)
MIC (Cryptococcus neoformans [10]): 15.6 µg/mL (≈ 65.2 µM)
MIC50 (Cryptococcus neoformans [10]): 1.9 µg/mL (≈ 7.94 µM)
MIC80 (Cryptococcus neoformans [10]): 1.9 µg/mL (≈ 7.94 µM)
MIC (Candida parapsilosis): 7.8 µg/mL (≈ 32.6 µM)
MIC50 (Candida parapsilosis): 7.8 µg/mL (≈ 32.6 µM)
MIC80 (Candida parapsilosis): 3.9 µg/mL (≈ 16.3 µM)
MIC (Cryptococcus neoformans [11]): 7.8 µg/mL (≈ 32.6 µM)
MIC50 (Cryptococcus neoformans [11]): 1.9 µg/mL (≈ 7.94 µM)
MIC80 (Cryptococcus neoformans [11]): 3.9 µg/mL (≈ 16.3 µM)
MIC (Candida albicans [12]): 15.6 µg/mL (≈ 65.2 µM)
MIC50 (Candida albicans [12]): 7.8 µg/mL (≈ 32.6 µM)
MIC80 (Candida albicans [12]): 15.6 µg/mL (≈ 65.2 µM)
MIC (Trichophyton rubrum): 32 µg/mL (≈ 134 µM)
MIC (Cryptococcus neoformans [13]): 7.8 µg/mL (≈ 32.6 µM)
MIC50 (Cryptococcus neoformans [13]): 3.9 µg/mL (≈ 16.3 µM)
MIC80 (Cryptococcus neoformans [13]): 7.8 µg/mL (≈ 32.6 µM)
MIC (Trichophyton benhamiae [14]): 1.95 µg/mL (≈ 8.15 µM)
MIC (Aspergillus flavus): 250 µg/mL (≈ 1040 µM)
MIC (Candida albicans [15]): 15.6 µg/mL (≈ 65.2 µM)
MIC50 (Candida albicans [15]): 3.9 µg/mL (≈ 16.3 µM)
MIC80 (Candida albicans [15]): 7.8 µg/mL (≈ 32.6 µM)
MIC (Cryptococcus neoformans [16]): 7.8 µg/mL (≈ 32.6 µM)
MIC (Kluyveromyces marxianus): 31.2 µg/mL (≈ 130 µM)
MIC50 (Kluyveromyces marxianus): 3.9 µg/mL (≈ 16.3 µM)
MIC80 (Kluyveromyces marxianus): 7.8 µg/mL (≈ 32.6 µM)
MIC (Nannizzia gypsea): 15.6 µg/mL (≈ 65.2 µM)
MIC (Cryptococcus neoformans [17]): 7.8 µg/mL (≈ 32.6 µM)
MIC50 (Cryptococcus neoformans [17]): 1.9 µg/mL (≈ 7.94 µM)
MIC80 (Cryptococcus neoformans [17]): 3.9 µg/mL (≈ 16.3 µM)
MIC (Cryptococcus neoformans [18]): 7.8 µg/mL (≈ 32.6 µM)
MIC50 (Cryptococcus neoformans [18]): 1.9 µg/mL (≈ 7.94 µM)
MIC80 (Cryptococcus neoformans [18]): 7.8 µg/mL (≈ 32.6 µM)
MIC (Torulaspora delbrueckii): 7.8 µg/mL (≈ 32.6 µM)
MIC50 (Torulaspora delbrueckii): 3.9 µg/mL (≈ 16.3 µM)
MIC80 (Torulaspora delbrueckii): 3.9 µg/mL (≈ 16.3 µM)
MIC (Nakaseomyces glabratus): 7.8 µg/mL (≈ 32.6 µM)
MIC50 (Nakaseomyces glabratus): 3.9 µg/mL (≈ 16.3 µM)
MIC80 (Nakaseomyces glabratus): 3.9 µg/mL (≈ 16.3 µM)
MIC (Trichophyton benhamiae [19]): 1.95 µg/mL (≈ 8.15 µM)
MIC (Cryptococcus neoformans [20]): 7.8 µg/mL (≈ 32.6 µM)
MIC50 (Cryptococcus neoformans [20]): 1.9 µg/mL (≈ 7.94 µM)
MIC80 (Cryptococcus neoformans [20]): 1.9 µg/mL (≈ 7.94 µM)
MIC (Candida albicans [21]): 15.6 µg/mL (≈ 65.2 µM)
MIC50 (Candida albicans [21]): 3.9 µg/mL (≈ 16.3 µM)
MIC80 (Candida albicans [21]): 15.6 µg/mL (≈ 65.2 µM)
MIC (Saccharomyces cerevisiae): 7.8 µg/mL (≈ 32.6 µM)
MIC (Trichophyton benhamiae [22]): 7.8 µg/mL (≈ 32.6 µM)
MIC (Trichophyton benhamiae [23]): 1.95 µg/mL (≈ 8.15 µM)
MIC (Candida albicans [24]): 15.6 µg/mL (≈ 65.2 µM)
MIC50 (Candida albicans [24]): 7.8 µg/mL (≈ 32.6 µM)
MIC80 (Candida albicans [24]): 7.8 µg/mL (≈ 32.6 µM)
MIC (Candida albicans [25]): 15.6 µg/mL (≈ 65.2 µM)
MIC50 (Candida albicans [25]): 3.9 µg/mL (≈ 16.3 µM)
MIC80 (Candida albicans [25]): 7.8 µg/mL (≈ 32.6 µM)
MIC (Clavispora lusitaniae): 7.8 µg/mL (≈ 32.6 µM)
MIC50 (Clavispora lusitaniae): 3.9 µg/mL (≈ 16.3 µM)
MIC80 (Clavispora lusitaniae): 3.9 µg/mL (≈ 16.3 µM)
SMILES: O=C1NC(=S)S/C1=C\c1ccc(F)cc1
MFC (Cryptococcus neoformans [1]): 31.2 µg/mL (≈ 130 µM)
MFC (Pichia kudriavzevii): 62.5 µg/mL (≈ 261 µM)
MFC (Cryptococcus neoformans [3]): 31.2 µg/mL (≈ 130 µM)
MFC (Cryptococcus neoformans [5]): 31.2 µg/mL (≈ 130 µM)
MFC (Cryptococcus neoformans [7]): 62.5 µg/mL (≈ 261 µM)
MFC (Candida tropicalis): 15.6 µg/mL (≈ 65.2 µM)
MFC (Candida albicans [8]): 62.5 µg/mL (≈ 261 µM)
MFC (Cryptococcus neoformans [9]): 62.5 µg/mL (≈ 261 µM)
MFC (Cryptococcus neoformans [10]): 31.2 µg/mL (≈ 130 µM)
MFC (Candida parapsilosis): 15.6 µg/mL (≈ 65.2 µM)
MFC (Cryptococcus neoformans [11]): 31.2 µg/mL (≈ 130 µM)
MFC (Candida albicans [12]): 31.2 µg/mL (≈ 130 µM)
MFC (Cryptococcus neoformans [13]): 31.2 µg/mL (≈ 130 µM)
MFC (Candida albicans [15]): 31.2 µg/mL (≈ 130 µM)
MFC (Kluyveromyces marxianus): 31.2 µg/mL (≈ 130 µM)
MFC (Cryptococcus neoformans [17]; read-out: MFC): 31.2 µg/mL (≈ 130 µM)
MFC (Cryptococcus neoformans [18]): 15.6 µg/mL (≈ 65.2 µM)
MFC (Torulaspora delbrueckii): 15.6 µg/mL (≈ 65.2 µM)
MFC (Nakaseomyces glabratus): 51.6 µg/mL (≈ 216 µM)
MFC (Cryptococcus neoformans [20]): 15.6 µg/mL (≈ 65.2 µM)
MFC (Candida albicans [21]): 31.2 µg/mL (≈ 130 µM)
MFC (Candida albicans [24]): 31.2 µg/mL (≈ 130 µM)
MFC (Candida albicans [25]): 31.2 µg/mL (≈ 130 µM)
MFC (Clavispora lusitaniae): 15.6 µg/mL (≈ 65.2 µM)
